# Measurements reported in patent publication US9321760B2 (Merck Patent GmbH, priority 2011, dated 2016).
# Biological target: P70S6K (T412E mutant) (Homo sapiens (Human), UniProt P23443, T412E)
# Experiment: P70S6K enzyme assay
# Format: biochemical
# Conditions: 3 nM P70S6K T412E mutant, 24 μM ATP, 1 μM FITC-AHA-AKRRRLSSLRA-OH substrate peptide, 90 min at 25° C.
# In short: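 IC50s come from mobility-shift separation of phospho-product from FITC-AHA-AKRRRLSSLRA-OH substrate (1 μM) after the reaction was quenched with 10 mM EDTA. The reaction used 3 nM T412E-mutant enzyme and 24 μM ATP, running 90 min at 25° C in 100 mM Hepes pH 7.5 buffer.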
# Chain of P70S6K (T412E mutant) (P23443 whole entry T412E): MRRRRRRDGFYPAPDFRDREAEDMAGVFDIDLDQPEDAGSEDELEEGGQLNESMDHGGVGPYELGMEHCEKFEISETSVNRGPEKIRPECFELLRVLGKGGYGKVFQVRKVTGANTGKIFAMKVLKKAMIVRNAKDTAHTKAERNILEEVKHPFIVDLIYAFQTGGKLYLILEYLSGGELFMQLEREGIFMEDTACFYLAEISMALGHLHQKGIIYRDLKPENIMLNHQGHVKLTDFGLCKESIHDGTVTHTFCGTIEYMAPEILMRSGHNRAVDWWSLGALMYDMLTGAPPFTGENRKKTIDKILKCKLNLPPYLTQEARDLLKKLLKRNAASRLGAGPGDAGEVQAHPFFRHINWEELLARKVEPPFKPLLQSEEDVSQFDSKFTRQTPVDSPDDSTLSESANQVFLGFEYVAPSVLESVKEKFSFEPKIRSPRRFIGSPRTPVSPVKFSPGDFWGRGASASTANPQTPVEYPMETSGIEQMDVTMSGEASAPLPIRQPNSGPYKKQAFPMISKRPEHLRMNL
row,SMILES,IC50
1,"C[C@H](NC(=O)C1(N)CCN(c2ncnc(N)c2Cl)CC1)c1ccc(Cl)cc1 [Example 222, 4-Amino-1-(6-amino-5-chloro-pyrimidin-4-yl)-piperidine-4-carboxylic acid [(S)-1-(4-chloro-phenyl)-ethyl]-amide]",0.62 µM
2,"Nc1ncnc(N2CCC(Cc3ccc(Cl)cc3)CC2)c1Br [Example 46, 5-Bromo-6{4-(4-chlorobenzyl)-piperidin-1-yl}pyrimidin-4-amine]",0.63 µM
3,"N#Cc1c(N)ncnc1N1CCC(N)(C(=O)N[C@@H](CCO)c2ccc(F)cc2)CC1 [Example 243, 4-Amino-1-(6-amino-5-cyano-pyrimidin-4-yl)-piperidine-4-carboxylic acid [(S)-1-(4-fluoro-phenyl)-3-hydroxy-propyl]-amide]",0.39 µM
4,"C=Cc1c(N)ncnc1N1CCC(C(O)c2ccc(F)cc2)CC1 (centres unmarked) [Example 141, 1-6-amino-5-(vinylpyrimidin-4-yl)piperidin-4-yl-4-(fluorophenyl)methanol]",1 µM
5,"N#Cc1c(N)ncnc1N1CCC(N)(C(=O)N[C@@H](CCO)c2ccc(C(F)(F)F)cc2)CC1 [Example 230, 4-Amino-1-(6-amino-5-cyano-pyrimidin-4-yl)-piperidine-4-carboxylic acid [(S)-3-hydroxy-1-(4-trifluoromethyl-phenyl)-propyl]-amide]",18 µM
6,N#Cc1c(N)ncnc1N1CCC(N)(C(=O)N[C@H](c2ccc(Cl)cc2)C(F)(F)F)CC1 [Example 220],3.2 µM
7,"N#Cc1ccc([C@@H](CN2CCC2)N2CCN(c3ncnc(N)c3-c3cn[nH]c3)CC2)cc1 [Example 88, 4-((S)-1-{4-[6-Amino-5-(1H-pyrazol-4-yl)-pyrimidin-4-yl]-piperazin-1-yl}-2-azetidin-1-yl-ethyl)-benzonitrile]",6.7 µM
8,"COc1ccc([C@H](CN2CCC2)N2CCN(c3ncnc(N)c3-c3ccc(F)cc3)CC2)cc1F [Example 104, 6-{4-[(R)-2-Azetidin-1-yl-1-(3-fluoro-4-methoxy-phenyl)-ethyl]-piperazin-1-yl}-5-(4-fluoro-phenyl)-pyrimidin-4-ylamine]",0.92 µM
9,"Nc1ncnc(N2CCC(C(c3ccc(F)cc3)N3CCC(F)(F)C3)CC2)c1-c1ccc(F)cc1 (centres unmarked) [Example 149, 5-(4-fluoropheny)-6-(4-((4-fluorophenyl)(3-difluoropyrrolidin-1-yl)methyl)piperidin-1-yl)pyrimidin-4-amine]",0.46 µM
10,"COc1ccc([C@H](CCO)NC(=O)C2(N)CCN(c3ncnc(N)c3Cl)CC2)cc1 [Example 238, 4-Amino-1-(6-amino-5-chloro-pyrimidin-4-yl)-piperidine-4-carboxylic acid [(S)-3-hydroxy-1-(4-methoxy-phenyl)-propyl]-amide]",0.38 µM
11,"C=Cc1c(N)ncnc1N1CCN(C(CN(C)C)c2ccc(C(F)(F)F)cc2)CC1 (centres unmarked) [Example 21, 6-(4-(2-(dimethylamino)-1-(4-(trifluoromethyl)phenyl)ethyl)piperazin-1-yl)-5-vinylpyrimidin-4-amine]",0.035 µM
12,"COc1ccc(C(CN2CCC2)N2CCN(c3ncnc(N)c3-c3cn[nH]c3)CC2)cc1F (centres unmarked) [Example 95, 6-{4-[2-Azetidin-1-yl-1-(3-fluoro-4-methoxy-phenyl)-ethyl]-piperazin-1-yl}-5-(1H-pyrazol-4-yl)-pyrimidin-4-ylamine]",3.5 µM
13,"NCC(c1ccc(C(F)(F)F)cc1)N1CCN(c2ncnc(N)c2F)CC1 (centres unmarked) [Example 74, 6-{4-[2-Amino-1-(4-trifluoromethyl-phenyl)-ethyl]-piperazin-1-yl}-5-fluoro-pyrimidin-4-ylamine]",0.37 µM
14,"CCc1c(N)ncnc1N1CCN(C(CN)c2ccc(Cl)nc2)CC1 (centres unmarked) [Example 177, 6-{4-[2-Amino-1-(6-chloro-pyridin-3-yl)-ethyl]-piperazin-1-yl}-5-ethyl-pyrimidin-4-ylamine]",0.2 µM
15,"N#Cc1c(N)ncnc1N1CCC(N)(C(=O)N[C@@H](CCO)c2ccccc2)CC1 [Example 226, 4-Amino-1-(6-amino-5-cyano-pyrimidin-4-yl)-piperidine-4-carboxylic acid ((S)-3-hydroxy-1-phenyl-propyl)-amide]",0.82 µM
16,"CC(c1ccc(Cl)cc1O)N1CCN(c2ncnc(N)c2-c2ccc(F)cc2)CC1 (centres unmarked) [Example 61, 2-(1-(4-(6-amino-5-(4-fluorophenyl)pyrimidin-4-yl)piperazin-1-yl)ethyl)-5-chlorophenol]",0.033 µM
17,"CCOC(=O)Cn1cc(-c2c(N)ncnc2N2CCN(C(CN3CCC3)c3ccc(Cl)c(Cl)c3)CC2)cn1 (centres unmarked) [Example 117, [4-(4-Amino-6-{4-[2-azetidin-1-yl-1-(3,4-dichloro-phenyl)-ethyl]-piperazin-1-yl}-pyrimidin-5-yl)-pyrazol-1-yl]-acetic acid ethyl ester]",24 µM
18,"N#Cc1cccc([C@H](CN2CCC2)N2CCN(c3ncnc(N)c3-c3cn[nH]c3)CC2)c1 [Example 91, 3-((R)-1-{4-[6-Amino-5-(1H-pyrazol-4-yl)-pyrimidin-4-yl]-piperazin-1-yl}-2-azetidin-1-yl-ethyl)-benzonitrile]",6.3 µM

row,SMILES,IC50
1,"NC[C@H](c1ccc(C(F)(F)F)cc1)N1CCN(c2ncnc(N)c2-c2ccc(F)cc2)CC1 [Example 3, 6-{4-[(S)-2-Amino-1-(4-trifluoromethyl-phenyl)-ethyl]-piperazin-1-yl}-5-(4-fluoro-phenyl)-pyrimidin-4-ylamine]",0.0026 µM
2,"NCC(c1ccc(Cl)c(F)c1)N1CCN(c2ncnc(N)c2-c2ccc(F)cc2)CC1 (centres unmarked) [Example 165, 6-{4-[2-Amino-1-(4-chloro-3-fluoro-phenyl)-ethyl]-piperazin-1-yl}-5-(4-fluoro-phenyl)-pyrimidin-4-ylamine]",0.0009 µM
3,"Nc1ncnc(N2CCN(C(CN3CCCC3)c3ccc(F)cc3)CC2)c1-c1ccc(F)cc1 (stereo in doubt) [Example 83, (S)-5-(4-Fluorophenyl)-6{4-[1-(4-fluorophenyl)-2-pyrrolidin-1-yl-ethyl]-piperazin-1-yl}-pyrimidin-4-ylamine]",1 µM
4,"Nc1ncnc(N2CCN(C(CN3CCC3)c3cccc(F)c3)CC2)c1-c1cn[nH]c1 (single isomer, unassigned) [Example 84, 6-{4-[2-Azetidin-1-yl-1-(3-fluoro-phenyl)-ethyl]-piperazin-1-yl}-5-(1H-pyrazol-4-yl)-pyrimidin-4-ylamine]",15 µM
5,"Nc1ncnc(N2CCN(C(CN3CCC3)c3ccc(Cl)c(Cl)c3)CC2)c1-c1cn[nH]c1 (centres unmarked) [Example 131, 6-{4-[2-Azetidin-1-yl-1-(3,4-dichloro-phenyl)-ethyl]-piperazin-1-yl}-5-(1H-pyrazol-4-yl)-pyrimidin-4-ylamine]",1.5 µM
6,"CC[C@H](NC(=O)C1(N)CCN(c2ncnc(N)c2Cl)CC1)c1ccc(Cl)cc1 [Example 215, 4-Amino-1-(6-amino-5-chloro-pyrimidin-4-yl)-piperidine-4-carboxylic acid [(S)-1-(4-chloro-phenyl)-propyl]-amide]",0.19 µM
7,"Nc1ncnc(N2CCN(C(CN3CCCCC3)c3cccc(F)c3)CC2)c1Br (centres unmarked) [Example 68, 5-Bromo-6{4-[1-(3-fluoro-phenyl)-2-piperidin-1-yl-ethyl]-piperazin-1-yl}-pyrimidin-4-ylamine]",> 1 µM
8,"Nc1ncnc(N2CCN(C(CN3CCC3)c3ccc(-n4ccnc4)cc3)CC2)c1-c1ccc(F)cc1 (centres unmarked) [Example 116, 6-{4-[2-Azetidin-1-yl-1-(4-imidazol-1-yl-phenyl)-ethyl]-piperazin-1-yl}-5-(4-fluoro-phenyl)-pyrimidin-4-ylamine]",0.29 µM
9,"CCc1c(N)ncnc1N1CCN(C(CN)c2ccc(Cl)cc2)CC1 (centres unmarked) [Example 178, 6-{4-[2-Amino-1-(4-chloro-phenyl)-ethyl]-piperazin-1-yl}-5-ethyl-pyrimidin-4-ylamine]",0.069 µM
10,"COC[C@H](NC(=O)C1(N)CCN(c2ncnc(N)c2C(N)=O)CC1)c1ccc(Cl)cc1 [Example 246, 4-Amino-6-{4-amino-4-[(R)-1-(4-chloro-phenyl)-2-methoxy-ethylcarbamoyl]-piperidin-1-yl}-pyrimidine-5-carboxylic acid amide]",5 µM
11,"Nc1ncnc(N2CCC(Cc3ccc(-c4ccc(F)cc4)cc3)CC2)c1-c1ccc(F)cc1 [Example 50, 5-(4-Fluorophenyl)-6{4-(4-(4-fluorophenyl)benzyl)-piperidin-1-yl}pyrimidin-4-amine]",0.45 µM
12,"COC(=O)c1ccc(-c2c(N)ncnc2N2CCN(C(CN(C)C)c3ccc(C(F)(F)F)cc3)CC2)cc1 (centres unmarked) [Example 23, Methyl 4-(4-amino-6-(4-(2-(dimethylamino)-1-(4-(trifluoromethyl)phenyl)ethyl)piperazin-1-yl)pyrimidin-5-yl)benzoate]",0.012 µM
13,"COC[C@H](NC(=O)C1(N)CCN(c2ncnc(N)c2Cl)CC1)c1ccc(Cl)cc1 [Example 234, 4-Amino-1-(6-amino-5-chloro-pyrimidin-4-yl)-piperidine-4-carboxylic acid [(R)-1-(4-chloro-phenyl)-2-methoxy-ethyl]-amide]",0.56 µM
14,"N#CC(c1cccc(C(F)(F)F)c1)N1CCN(c2ncnc(N)c2-c2ccc(F)cc2)CC1 (centres unmarked) [Example 152, {4-[6-Amino-5-(4-fluoro-phenyl)-pyrimidin-4-yl]-piperazin-1-yl}-(3-trifluoromethyl-phenyl)-acetonitrile]",> 1 µM
15,"Nc1ncnc(N2CCC(C(OCCN3CCCC3)c3ccc(F)cc3)CC2)c1-c1ccc(F)cc1 (centres unmarked) [Example 146, 5-(4-fluoropheny)6-(4-((4-fluorophenyl)(2-(pyrrolidin-1-yl)ethoxy)methyl)-piperidin-1-yl)pyrimidin-4-amine]",0.011 µM
16,Nc1ncnc(N2CCC(C(NCC3CCNCC3)c3ccc(F)cc3)CC2)c1-c1ccc(F)cc1 (centres unmarked) [Example 151],0.2 µM
17,"Nc1ncnc(N2CCN(C(CCN3CCC3)c3ccc(Cl)cc3)CC2)c1-c1ccc(F)cc1 (centres unmarked) [Example 112, 6-{4-[3-Azetidin-1-yl-1-(4-chloro-phenyl)-propyl]-piperazin-1-yl}-5-(4-fluoro-phenyl)-pyrimidin-4-ylamine]",0.46 µM
